Results reported in PubChem BioAssay (NCI).
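The compound was tested at five concentrations on cells cultured in 96-well plates, with a 48-hour exposure period. TGI is the concentration that stops growth completely.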

What was measured:
Test in all cases: NCI anticancer screen, dose series, 48 h
A549 NSCLC = system: A549 NSCLC
U251 CNS = system: U251 CNS
BT-549 breast = system: BT-549 breast
NCI-H23 lung = system: NCI-H23 lung
UACC-62 melanoma = system: UACC-62 melanoma
UACC-257 melanoma = system: UACC-257 melanoma
OVCAR-3 ovarian = system: OVCAR-3 ovarian
OVCAR-8 ovarian = system: OVCAR-8 ovarian
MDA-MB-435 = system: MDA-MB-435
NCI-H226 lung = system: NCI-H226 lung
HCT-116 colon = system: HCT-116 colon
HCT-15 colon = system: HCT-15 colon
MDA-MB-231 breast = system: MDA-MB-231 breast
SF-295 CNS = system: SF-295 CNS
LOX IMVI melanoma = system: LOX IMVI melanoma
T-47D breast = system: T-47D breast
NCI/ADR-RES ovarian = system: NCI/ADR-RES ovarian
RPMI-8226 leukemia = system: RPMI-8226 leukemia
NCI-H522 lung = system: NCI-H522 lung
HOP-92 NSCLC = system: HOP-92 NSCLC
SK-MEL-5 melanoma = system: SK-MEL-5 melanoma
PC-3 prostate = system: PC-3 prostate
MDA-N = system: MDA-N
CAKI-1 renal = system: CAKI-1 renal
TK-10 renal = system: TK-10 renal
MCF7 breast = system: MCF7 breast
ACHN renal = system: ACHN renal
786-0 renal = system: 786-0 renal
SK-MEL-2 melanoma = system: SK-MEL-2 melanoma
KM12 colon = system: KM12 colon
A498 renal = system: A498 renal
K-562 leukemia = system: K-562 leukemia
OVCAR-5 ovarian = system: OVCAR-5 ovarian
DU-145 prostate = system: DU-145 prostate
SNB-19 CNS = system: SNB-19 CNS
RXF 393 renal = system: RXF 393 renal
M14 melanoma = system: M14 melanoma
NCI-H460 lung = system: NCI-H460 lung
COLO 205 colon = system: COLO 205 colon
SW-620 colon = system: SW-620 colon
SK-OV-3 ovarian = system: SK-OV-3 ovarian
SF-539 CNS = system: SF-539 CNS
HT29 colon = system: HT29 colon
HCC-2998 colon = system: HCC-2998 colon
SN12C renal = system: SN12C renal
MOLT-4 leukemia = system: MOLT-4 leukemia
UO-31 renal = system: UO-31 renal
SF-268 CNS = system: SF-268 CNS
IGROV1 ovarian = system: IGROV1 ovarian
SK-MEL-28 melanoma = system: SK-MEL-28 melanoma
HOP-62 NSCLC = system: HOP-62 NSCLC
HS 578T breast = system: HS 578T breast
OVCAR-4 ovarian = system: OVCAR-4 ovarian
EKVX NSCLC = system: EKVX NSCLC
SNB-75 CNS = system: SNB-75 CNS
HL-60(TB) leukemia = system: HL-60(TB) leukemia
MALME-3M melanoma = system: MALME-3M melanoma
CCRF-CEM leukemia = system: CCRF-CEM leukemia

SMILES: Clc1ccc(N=C2c3ccccc3CN2c2ccc(Cl)cc2)cc1
- TGI (A549 NSCLC): > 100 µM
- TGI (U251 CNS): > 100 µM
- TGI (BT-549 breast): > 100 µM
- TGI (NCI-H23 lung): > 100 µM
- TGI (UACC-62 melanoma): > 100 µM
- TGI (UACC-257 melanoma): > 100 µM
- TGI (OVCAR-3 ovarian): > 100 µM
- TGI (OVCAR-8 ovarian): > 100 µM
- TGI (MDA-MB-435): > 100 µM
- TGI (NCI-H226 lung): > 100 µM
- TGI (HCT-116 colon): > 100 µM
- TGI (HCT-15 colon): > 100 µM
- TGI (MDA-MB-231 breast): > 100 µM
- TGI (SF-295 CNS): > 100 µM
- TGI (LOX IMVI melanoma): > 100 µM
- TGI (T-47D breast): 94 µM
- TGI (NCI/ADR-RES ovarian): > 100 µM
- TGI (RPMI-8226 leukemia): > 100 µM
- TGI (NCI-H522 lung): > 100 µM
- TGI (HOP-92 NSCLC): > 100 µM
- TGI (SK-MEL-5 melanoma): > 100 µM
- TGI (PC-3 prostate): > 100 µM
- TGI (MDA-N): > 100 µM
- TGI (CAKI-1 renal): > 100 µM
- TGI (TK-10 renal): > 100 µM
- TGI (MCF7 breast): > 100 µM
- TGI (ACHN renal): > 100 µM
- TGI (786-0 renal): > 100 µM
- TGI (SK-MEL-2 melanoma): > 100 µM
- TGI (KM12 colon): > 100 µM
- TGI (A498 renal): > 100 µM
- TGI (K-562 leukemia): > 100 µM
- TGI (OVCAR-5 ovarian): > 100 µM
- TGI (DU-145 prostate): > 100 µM
- TGI (SNB-19 CNS): > 100 µM
- TGI (RXF 393 renal): > 100 µM
- TGI (M14 melanoma): > 100 µM
- TGI (NCI-H460 lung): > 100 µM
- TGI (COLO 205 colon): > 100 µM
- TGI (SW-620 colon): > 100 µM
- TGI (SK-OV-3 ovarian): > 100 µM
- TGI (SF-539 CNS): > 100 µM
- TGI (HT29 colon): > 100 µM
- TGI (HCC-2998 colon): > 100 µM
- TGI (SN12C renal): > 100 µM
- TGI (MOLT-4 leukemia): > 100 µM
- TGI (UO-31 renal): > 100 µM
- TGI (SF-268 CNS): > 100 µM
- TGI (IGROV1 ovarian): > 100 µM
- TGI (SK-MEL-28 melanoma): > 100 µM
- TGI (HOP-62 NSCLC): > 100 µM
- TGI (HS 578T breast): > 100 µM
- TGI (OVCAR-4 ovarian): > 100 µM
- TGI (EKVX NSCLC): > 100 µM
- TGI (SNB-75 CNS): > 100 µM

SMILES: COC(=O)[C@]1(C)CC[C@]2(C)CC[C@]3(C)C4[C@H]5Oc6c(cc7c(c6C)CCC6[C@@]7(C)CC[C@@]7(C)C8[C@](C)(CCC[C@@]8(C)C(=O)OC)CC[C@]67C)O[C@H]5c5c(cc6c(c5C)O[C@@]5(C)C7=CC=C8[C@@](C)(CC[C@@]9(C)[C@@H]%10C[C@](C)(C(=O)OC)CC[C@]%10(C)CC[C@]89C)C7=CC(=O)[C@@]5(O)O6)[C@]4(C)CC[C@@]3(C)C2C1 (some centres undefined)
- TGI (A549 NSCLC): > 12.5 µM
- TGI (U251 CNS): 11.4 µM
- TGI (BT-549 breast): > 12.5 µM
- TGI (NCI-H23 lung): > 12.5 µM
- TGI (UACC-62 melanoma): 4.61 µM
- TGI (UACC-257 melanoma): 6.52 µM
- TGI (OVCAR-3 ovarian): 5.91 µM
- TGI (OVCAR-8 ovarian): 5.95 µM
- TGI (MDA-MB-435): 12.2 µM
- TGI (HL-60(TB) leukemia): > 12.5 µM
- TGI (NCI-H226 lung): > 12.5 µM
- TGI (MALME-3M melanoma): > 12.5 µM
- TGI (HCT-116 colon): 6.63 µM
- TGI (HCT-15 colon): 11.5 µM
- TGI (MDA-MB-231 breast): 7.08 µM
- TGI (SF-295 CNS): > 12.5 µM
- TGI (LOX IMVI melanoma): 4.56 µM
- TGI (T-47D breast): 6.94 µM
- TGI (NCI/ADR-RES ovarian): > 12.5 µM
- TGI (NCI-H522 lung): 5.9 µM
- TGI (HOP-92 NSCLC): 4.5 µM
- TGI (SK-MEL-5 melanoma): > 12.5 µM
- TGI (PC-3 prostate): > 12.5 µM
- TGI (MDA-N): 4.02 µM
- TGI (CAKI-1 renal): > 12.5 µM
- TGI (TK-10 renal): 6.07 µM
- TGI (MCF7 breast): 9.73 µM
- TGI (ACHN renal): > 12.5 µM
- TGI (786-0 renal): 3.59 µM
- TGI (SK-MEL-2 melanoma): 6.14 µM
- TGI (KM12 colon): > 12.5 µM
- TGI (CCRF-CEM leukemia): 4.9 µM
- TGI (A498 renal): > 12.5 µM
- TGI (K-562 leukemia): 11.6 µM
- TGI (OVCAR-5 ovarian): > 12.5 µM
- TGI (DU-145 prostate): > 12.5 µM
- TGI (SNB-19 CNS): > 12.5 µM
- TGI (RXF 393 renal): 4.01 µM
- TGI (M14 melanoma): > 12.5 µM
- TGI (NCI-H460 lung): > 12.5 µM
- TGI (COLO 205 colon): > 12.5 µM
- TGI (SW-620 colon): 6.69 µM
- TGI (SK-OV-3 ovarian): > 12.5 µM
- TGI (SF-539 CNS): 5.41 µM
- TGI (HT29 colon): > 12.5 µM
- TGI (SN12C renal): 5.31 µM
- TGI (MOLT-4 leukemia): 4.85 µM
- TGI (UO-31 renal): 5.11 µM
- TGI (SF-268 CNS): > 12.5 µM
- TGI (IGROV1 ovarian): 5.81 µM
- TGI (SK-MEL-28 melanoma): > 12.5 µM
- TGI (HOP-62 NSCLC): > 12.5 µM
- TGI (HS 578T breast): > 12.5 µM
- TGI (OVCAR-4 ovarian): > 12.5 µM
- TGI (EKVX NSCLC): 10.5 µM
- TGI (SNB-75 CNS): 10.5 µM

SMILES: CN1C(=O)C(/C=N/NC(=O)c2cccnc2)C(N)N(C)C1=O (centres undefined)
- TGI (A549 NSCLC): > 100 µM
- TGI (U251 CNS): > 100 µM
- TGI (BT-549 breast): > 100 µM
- TGI (NCI-H23 lung): > 100 µM
- TGI (UACC-62 melanoma): > 100 µM
- TGI (UACC-257 melanoma): > 100 µM
- TGI (OVCAR-3 ovarian): > 100 µM
- TGI (OVCAR-8 ovarian): > 100 µM
- TGI (MDA-MB-435): > 100 µM
- TGI (NCI-H226 lung): > 100 µM
- TGI (MALME-3M melanoma): > 100 µM
- TGI (HCT-116 colon): > 100 µM
- TGI (HCT-15 colon): > 100 µM
- TGI (MDA-MB-231 breast): > 100 µM
- TGI (SF-295 CNS): > 100 µM
- TGI (T-47D breast): > 100 µM
- TGI (NCI/ADR-RES ovarian): > 100 µM
- TGI (RPMI-8226 leukemia): > 100 µM
- TGI (NCI-H522 lung): > 100 µM
- TGI (SK-MEL-5 melanoma): > 100 µM
- TGI (PC-3 prostate): > 100 µM
- TGI (MDA-N): > 100 µM
- TGI (CAKI-1 renal): > 100 µM
- TGI (TK-10 renal): > 100 µM
- TGI (MCF7 breast): > 100 µM
- TGI (ACHN renal): > 100 µM
- TGI (786-0 renal): > 100 µM
- TGI (SK-MEL-2 melanoma): > 100 µM
- TGI (KM12 colon): > 100 µM
- TGI (CCRF-CEM leukemia): > 100 µM
- TGI (K-562 leukemia): > 100 µM
- TGI (OVCAR-5 ovarian): > 100 µM
- TGI (DU-145 prostate): > 100 µM
- TGI (SNB-19 CNS): > 100 µM
- TGI (RXF 393 renal): > 100 µM
- TGI (M14 melanoma): > 100 µM
- TGI (NCI-H460 lung): > 100 µM
- TGI (COLO 205 colon): > 100 µM
- TGI (SW-620 colon): > 100 µM
- TGI (SK-OV-3 ovarian): > 100 µM
- TGI (HT29 colon): > 100 µM
- TGI (HCC-2998 colon): > 100 µM
- TGI (SN12C renal): > 100 µM
- TGI (MOLT-4 leukemia): > 100 µM
- TGI (UO-31 renal): > 100 µM
- TGI (SF-268 CNS): > 100 µM
- TGI (IGROV1 ovarian): > 100 µM
- TGI (SK-MEL-28 melanoma): > 100 µM
- TGI (HOP-62 NSCLC): > 100 µM
- TGI (HS 578T breast): > 100 µM
- TGI (OVCAR-4 ovarian): > 100 µM
- TGI (EKVX NSCLC): > 100 µM
- TGI (SNB-75 CNS): > 100 µM
